Measurements as given in publication PMC4750701, “Role of Mitochondrial RNA Polymerase in the Toxicity of Nucleotide Inhibitors of Hepatitis C Virus” (Antimicrobial Agents and Chemotherapy, 2016).
Like-named read-outs stand apart in the source and are kept apart here.

How the values were obtained:
[1] = biological target: T1, RNA PolII (Homo sapiens, UniProt P24928+P30876); assay: Inhibition of RNA PolII (HeLaScribe nuclear extract transcription); format: biochemical; settings: read-out: Mean IC50 ± SD for RNA PolII
T1 construct: purchased as part of the HeLaScribe nuclear extract in vitro transcription system kit; purchased Promega (Madison, WI); host or cells: HeLa nuclear extract (endogenous enzyme)
Description: (§1) Activated fish sperm DNA was purchased from USB/Affymetrix (Santa Clara, CA) and used as a template for the DNA polymerases alpha, beta, and gamma. The DNA template used in the RNA Pol II assay was a 1,188-bp restriction fragment containing the cytomegalovirus (CMV) immediate early promoter (Promega, Madison, WI). The RNA and DNA oligonucleotides used in the mitochondrial RNA polymerase assay (see Table S1 in the supplemental material) were synthesized and PAGE purified by Thermo Scientific/Dharmacon (Lafayette, CO). RNA primer R12 was 5′-^32P-phosphorylated with [γ-^32P]ATP (3,000 Ci/mmol) and T4 kinase (New England BioLabs, Ipswich, MA).
(§2) Human DNA polymerase alpha, isolated from HeLa cell extracts, was from CHIMERx (Madison, WI). Recombinant human DNA polymerase beta, expressed in E. coli, was a gift from Zucai Suo at The Ohio State University. Recombinant human DNA polymerase gamma (including both the large subunit and the small subunit) was cloned, expressed, and purified from insect cells by Gilead Sciences (Foster City, CA) ([13]). RNA PolII was purchased as part of the HeLaScribe nuclear extract in vitro transcription system kit from Promega (Madison, WI). The recombinant human PolRMT and the transcription factors mitochondrial transcription factor A (mtTFA) and B2 (mtTFB2) were purchased from Enzymax (Lexington, KY). FLAG epitope-tagged RNA PolI and PolIII complexes were isolated from rat NSN1 cells and HeLa cells, respectively ([17], [18]). The inhibition of DNA polymerases alpha, beta, and gamma, PolRMT, and PolII and the rate of single-nucleotide incorporation by PolRMT have been described previously in detail ([12], [13], [19]). Inhibition of RNA PolI and PolIII was studied using published methods ([20], [21]). All concentrations were final unless noted otherwise. For the RNA PolI inhibition assay, a reaction mixture containing 50 mM HEPES (pH 7.9), 20% glycerol, 100 mM KCl, 1 mM dithiothreitol (DTT), 50 μg/ml calf thymus DNA, 4 mM MgCl2, 5 or 80 μM UTP (0.25 μl of [5,6-^3H]UTP, >25 Ci/mmol; PerkinElmer), 1 mM noncompeting NTP, competing NTP (5 μM for GTP, CTP, and UTP and 25 μM for ATP), and various concentrations (0 to 500 μM) of NTP analogs was preincubated at 30°C for 5 min. […] After incubation at 30°C for 20 min to 1 h, the reactions were terminated by pipetting the mixtures onto DEAE-cellulose discs (DE81; Whatman), and the products analyzed as described previously ([20], [21]).

[2] = biological target: T2, Recombinant human DNA polymerase gamma (Homo sapiens, UniProt P54098); assay: Inhibition of human DNA polymerase gamma; format: biochemical; settings: triphosphate form of the compound tested; read-out: Mean IC50 ± SD for DNA Pol γ
T2 construct: made in house; host or cells: insect cells
T2 sequence (P54098 1-1239): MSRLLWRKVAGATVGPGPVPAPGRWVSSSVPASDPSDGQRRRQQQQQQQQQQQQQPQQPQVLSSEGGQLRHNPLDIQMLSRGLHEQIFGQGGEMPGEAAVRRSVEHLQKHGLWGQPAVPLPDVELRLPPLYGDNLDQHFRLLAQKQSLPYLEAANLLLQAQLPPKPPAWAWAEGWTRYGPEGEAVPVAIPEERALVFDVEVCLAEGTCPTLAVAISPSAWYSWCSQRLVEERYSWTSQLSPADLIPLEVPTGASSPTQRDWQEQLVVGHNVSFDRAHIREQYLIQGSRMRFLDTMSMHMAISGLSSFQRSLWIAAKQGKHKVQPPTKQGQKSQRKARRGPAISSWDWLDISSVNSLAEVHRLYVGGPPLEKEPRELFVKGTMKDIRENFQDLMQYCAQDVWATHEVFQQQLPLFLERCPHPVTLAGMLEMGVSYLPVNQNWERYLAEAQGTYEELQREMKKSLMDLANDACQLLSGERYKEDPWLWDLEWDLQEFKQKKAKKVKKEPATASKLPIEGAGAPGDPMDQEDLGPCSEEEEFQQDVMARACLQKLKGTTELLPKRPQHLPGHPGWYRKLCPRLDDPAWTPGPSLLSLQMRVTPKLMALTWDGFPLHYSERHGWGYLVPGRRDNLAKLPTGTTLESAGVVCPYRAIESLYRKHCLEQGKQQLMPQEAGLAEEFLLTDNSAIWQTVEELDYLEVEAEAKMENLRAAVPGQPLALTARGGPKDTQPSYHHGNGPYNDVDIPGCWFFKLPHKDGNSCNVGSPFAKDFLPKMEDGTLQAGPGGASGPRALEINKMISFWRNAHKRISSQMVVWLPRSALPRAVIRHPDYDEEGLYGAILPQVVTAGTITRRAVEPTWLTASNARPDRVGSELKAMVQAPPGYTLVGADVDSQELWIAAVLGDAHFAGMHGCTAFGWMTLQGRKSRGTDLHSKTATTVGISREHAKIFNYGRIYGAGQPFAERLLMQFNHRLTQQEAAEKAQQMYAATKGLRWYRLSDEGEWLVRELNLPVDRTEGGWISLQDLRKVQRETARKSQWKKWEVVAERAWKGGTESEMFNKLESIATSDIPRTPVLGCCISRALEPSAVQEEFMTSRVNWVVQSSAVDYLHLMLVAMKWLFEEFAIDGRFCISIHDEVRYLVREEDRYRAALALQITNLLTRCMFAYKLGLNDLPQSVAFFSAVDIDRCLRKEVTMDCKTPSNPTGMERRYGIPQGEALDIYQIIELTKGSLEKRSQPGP
T2 sequence (Q9UHN1 26-485 partner limits assumed): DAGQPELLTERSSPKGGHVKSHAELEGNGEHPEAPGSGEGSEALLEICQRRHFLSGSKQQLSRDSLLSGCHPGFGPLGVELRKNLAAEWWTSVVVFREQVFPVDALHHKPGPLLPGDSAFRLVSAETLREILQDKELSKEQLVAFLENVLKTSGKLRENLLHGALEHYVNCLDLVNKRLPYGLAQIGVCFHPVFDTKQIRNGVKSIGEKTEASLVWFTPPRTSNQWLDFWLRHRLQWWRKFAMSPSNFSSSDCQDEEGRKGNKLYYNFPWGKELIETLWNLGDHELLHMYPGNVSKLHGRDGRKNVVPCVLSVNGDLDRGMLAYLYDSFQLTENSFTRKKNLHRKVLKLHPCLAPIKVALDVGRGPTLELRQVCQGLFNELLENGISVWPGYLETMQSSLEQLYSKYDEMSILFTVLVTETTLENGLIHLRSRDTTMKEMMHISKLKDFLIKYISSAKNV
Description: as §1, §2

[3] = triphosphate form of the compound tested (Table 4)

Structure (SMILES) | IC50 [1, 3] [µM] | IC50 [2] [µM] | IC50 ([1]; nucleotide analogs (Table 6)) [µM]
C[C@@]1(O)[C@H](O)[C@@H](COP(=O)(O)OP(=O)(O)OP(=O)(O)O)O[C@H]1n1cnc2c(=O)[nH]c(N)nc21 [2′CMeGTP] | > 200 | > 200 | > 500
CC(C)OC(=O)[C@H](C)N[P@](=O)(OC[C@H]1O[C@@](C#N)(c2ccc3c(N)ncnn23)[C@](C)(O)[C@@H]1OC(=O)C(C)C)Oc1ccccc1 [GS-6620] | > 200 | > 200 | –
C[C@@]1(F)[C@H](O)[C@@H](CO)O[C@H]1n1ccc(N)nc1=O [PSI-6130] | > 200 | > 200 | –
CC(C)OC(=O)[C@H](C)N[P@](=O)(OC[C@H]1O[C@@H](n2ccc(=O)[nH]c2=O)[C@](C)(F)[C@@H]1O)Oc1ccccc1 [Sofosbuvir] | > 200 | > 200 | –

Further lines, results first:

IC50 [1, 3] [µM] | IC50 [2] [µM] | IC50 ([1]; nucleotide analogs (Table 6)) [µM] | Structure (SMILES)
> 200 | > 200 | – | C[C@@]1(O)[C@H](O)[C@@H](CO)O[C@H]1n1ccc(N)nc1=O [2′CMeC, 2′-C-methyl (2′CMe) cytidine]
> 200 | > 200 | – | [N-]=[N+]=N[C@]1(CO)O[C@@H](n2ccc(N)nc2=O)[C@H](O)[C@@H]1O [4′-AzidoC, 4′-azido cytidine]
> 200 | > 200 | – | CCOc1nc(N)nc2c1ncn2[C@@H]1O[C@@H]2COP(=O)(OC(C)C)O[C@H]2[C@@]1(C)F (stereo partly drawn) [PSI-938]
